Measurements published in PMC9977398, “Next-generation membrane-active glycopeptide antibiotics that also inhibit bacterial cell division” (Chemical Science, 2023).
Like-named read-outs stand apart in the source and are kept apart here.

Assays:
[1] = tested on: VRSA 12 (vancomycin-resistant S. aureus); set-up: method as in PMID 32195571; settings: previously reported; cited from earlier work
[2] = tested on: carbapenem-resistant A. baumannii; assay: Murine chronic burn-wound infection model; assay type: in vivo, mice; settings: 30 mg kg^−1 topically for 5 days; untreated 8 log CFU g^−1
Method: Fig. 6 (A) Propensity of vancomycin and VanQAmC10 to induce resistance in MRSA upon serial exposure to sub-MIC concentrations; (B) (i) experimental design for in vivo efficacy study in a murine thigh infection model, (ii) in vivo efficacy of VanQAmC10 and vancomycin against the multidrug-resistant methicillin-resistant S. aureus (MRSA) (n = 3/dose). Antibiotics were administered intraperitoneally twice at 12 h intervals at a dose of 12 mg kg^−1. (C) (i) Experimental design for in vivo efficacy study in murine burn wound infection model, (ii) in vivo efficacy of VanQAmC10 and colistin against the carbapenem-resistant A. baumannii (n = 5/dose, 1 mouse died in untreated control). VanQAmC10 and colistin were treated topically at 30 mg kg^−1 for 5 days (‘***’ indicates p < 0.0001, ‘**’ indicates p < 0.001, ‘*’ p < 0.05, p = 0.08 (n.s.) for VanQAmC10 with respect to vancomycin).
Further, the efficacy of VanQAmC10 (8) was tested in a chronic burn-wound infection model of A. baumannii.[40] Chronic burn wounds on the back of mice were infected with A. baumannii. […] Infected mice were treated with 30 mg kg^−1 of VanQAmC10 and colistin for five days consecutively. The bacterial load in the untreated group increased to 8 log CFU g^−1 six days post-infection. […] The use of colistin is however limited due to its toxicity and bacteria easily develop resistance to it. […]

[3] = In-vivo toxicity in mice (LD50); set-up: species or system Balb/c female mice; settings: for LD50: single injection, 14 days
Method: The in vitro activity, low toxicity, and stability in plasma and liver homogenate, supported the potential of VanQAmC10 as a candidate for the treatment of bacterial infections. The efficacy of VanQAmC10 (8) against MRSA was tested in a neutropenic mouse thigh infection model. Infection was established by injecting them with 5 × 10^5 CFU of MRSA in the thigh. 1 h and 13 h post-infection, mice were treated with 12 mg kg^−1 of vancomycin and VanQAmC10 administered intraperitoneally (Fig. 6B). The mice were sacrificed 24 h post-infection. […] In the untreated group, the bacterial load increased to 8 log CFU g^−1. […] However, treatment with VanQAmC10 reduced the bacterial load to 3.3 log CFU g^−1, which is a 1.5 log CFU g^−1 lower bacterial load than observed against vancomycin.
Table S1: Activity of VanQAmC10 in mouse plasma and liver homogenate against MRSA […]
MIC of VanQAmC10 post incubation in (μM)
Bacteria Plasma Liver homogenate Media […]
when administered subcutaneously. […]
of VanQAmC10 as compared to the previously developed molecule, VanQC14.3 This reduced toxicity of VanQAmC10 can be attributed to the presence of the amide spacer between the cationic moiety and the alkyl chain as mentioned in the previous section.
Table S2 In-vivo toxicity (LD50 values) of VanQAmC10 by various modes of administration Mode of administration LD 50 (mg/kg)
All reagents were purchased from Sigma-Aldrich and Spectrochem and used without further purification. All the solvents of reagent grade were purchased from Spectrochem and SD Fine.
Chloroform for column chromatography was purchased from SD Fine chemicals and distilled prior to use. HPLC grade acetonitrile was purchased from Spectrochem. Analytical thin layer chromatography (TLC) was performed on E. Merck TLC plates pre-coated with silica gel 60 F254 (250 μm thickness). Vancomycin derivative was purified by reverse phase HPLC using 0.1 % trifluoroacetic acid (TFA) in water/acetonitrile (0-100 %) as mobile phase. HPLC […]
The doses for administration, were given modified OECD guidelines. LD50 was determined using Spearman-Karber method. […]

[4] = tested on: VRSA 1 (vancomycin-resistant S. aureus); set-up: method as in PMID 32195571; settings: previously reported; cited from earlier work
[5] = mice, intravenous injection; cited from earlier work

CCCCCCCCCCNC(=O)C[N+](C)(C)CCCNC(=O)C1NC(=O)C2NC(=O)C(NC(=O)C3NC(=O)C(CC(N)=O)NC(=O)C(NC(=O)C(CC(C)C)NC)C(O)c4ccc(c(Cl)c4)Oc4cc3cc(c4OC3OC(CO)C(O)C(O)C3OC3CC(C)(N)C(O)C(C)O3)Oc3ccc(cc3Cl)C2O)c2ccc(O)c(c2)-c2c(O)cc(O)cc21 (stereo not shown) [VanQAmC10 (8)]
Minimum inhibitory concentration, VRSA 12 [1]: 1.6 µM | lower bacterial load as compared to the untreated mice [2]: 2.2 log CFU g^−1 | dose well tolerated, all mice survived ([3]; intraperitoneal): 130 mg/kg | LD50 ([3]; intraperitoneal): greater than 130 mg/kg | LD50 ([3]; subcutaneous): greater than 160 mg kg^−1 | Minimum inhibitory concentration, VRSA 1 [4]: 3.1 µM | LD50 [5]: 70 mg/kg
